Experimental data from patent US7207289B2, “Method of feeding the cattle with feed additives that increases beef production and reduces liver abscess” (Intervet International B.V., priority 2004, dated 2007).

Legend:
[1] = tested on: cattle; conditions: cited from earlier work
[2] = tested on: steers and heifers; assay: Zilpaterol efficacy studies V-0238-0019, V-0238-0020, V-0238-0021 (pooled analysis): liver abscesses and feed intake; assay type: in vivo, cattle
Source text: All of these cattle had been fed Tylan® up to the last 20 to 40 days on feed at which time Tylan® was removed and cattle were either fed a control diet without Tylan®, Rumensin® or zilpaterol or cattle were fed a treatment diet containing just zilpaterol. While the mechanism by which zilpaterol decreases liver abscess is not fully clear at this time, it seems that zilpaterol functions to decrease liver abscesses by decreasing feed intake. Because the liver abscesses discovered at slaughter are formed during the last ˜60 days or less on feed and this is the same time zilpaterol is fed, a decrease in feed intake would result in a decrease in acid production and possibly a decrease in rumen wall lesions and rumenitis.
Summary of Zilpaterol Efficacy Studies (Pooled Analysis), Study Numbers, V-0238-0019, V-0238-0020, and V-0238-0021 on Liver Abscesses and Feed Intake

[3] = tested on: steers; assay: Study V-0238-0017: effects of Rumensin plus Tylan and zilpaterol on liver abscess rates in feedlot steers; assay type: in vivo, cattle
Source text: In study number V-0238-0017 a total of 3,945 steers were used to test the effects of Rumensin® plus Tylan® and zilpaterol on feedlot performance, liver abscess rates, and carcass traits. The inventors discovered that Tylan® and Rumensin® could be removed from the diet for the last 30 days to feed zilpaterol without negatively affecting liver abscess rates. In fact it was discovered that zilpaterol decreased the incidence of liver abscesses.
Study Number V-0238-0017, Effects of Zilpaterol on Liver Abscesses

Row | Compound | feed intake and dressing percentage ([1]; Laudert and Vogel (1994)) | gain and feed to gain ratio ([1]; Laudert and Vogel (1994)) | average daily gain ([1]; Potter et al. (1985)) | feed intake ([1]; Potter et al. (1985)) | liver abscesses being reduced ([1]; cattle treated with Tylan, typical) [%] | Average Daily Dry Matter Intake, lbs. ([2]; pooled analysis of three studies, zilpaterol for the last 20 or 40 days) [lbs.] | % of Livers Condemned for Abscesses ([2]; pooled, 957 animals, Tylan removed for the last 20 to 40 days, diet containing just zilpaterol) [%] | liver abscesses (effect in words) ([2]; steers and heifers supplemented for 20 or 40 days) | Live Abscess, % ([3]; 166-day study, 3,945 steers, 10 pens per treatment, zilpaterol fed for the last 30 days on feed) [%] | incidence of liver abscesses (effect in words) ([3]; study V-0238-0017, steers)
1 | CC[C@H]1OC(=O)C[C@@H](O)[C@H](C)[C@@H](O[C@@H]2O[C@H](C)[C@@H](O[C@H]3C[C@@](C)(O)[C@@H](O)[C@H](C)O3)[C@H](N(C)C)[C@H]2O)[C@@H](CC=O)C[C@@H](C)C(=O)/C=C/C(C)=C/[C@@H]1CO[C@@H]1O[C@H](C)[C@@H](O)[C@@H](OC)[C@H]1OC [Tylan, Tylosin] | only minor effects | improved | improved | no effect | 63 to 71 |  |  |  |  | 
2 | CC(C)NC1CCn2c(=O)[nH]c3cccc(c32)C1O (stereo not shown) [Zilpaterol] |  |  |  |  |  | 18.69 | 19.1 | significantly decreased | 13.29 | decreased
